Data set [1] deals with T1, 5-HT1A receptor (Rattus norvegicus, UniProt P19327).
T1 construct: Rat cerebral cortex membranes (10 mg by weight, moistened, per ml) are incubated with [3H]8-OH-DPAT (1 nM); from tissue; host or cells: rat cerebral cortex membranes (male Sprague Dawley rats)
T1 sequence (P19327 1-422): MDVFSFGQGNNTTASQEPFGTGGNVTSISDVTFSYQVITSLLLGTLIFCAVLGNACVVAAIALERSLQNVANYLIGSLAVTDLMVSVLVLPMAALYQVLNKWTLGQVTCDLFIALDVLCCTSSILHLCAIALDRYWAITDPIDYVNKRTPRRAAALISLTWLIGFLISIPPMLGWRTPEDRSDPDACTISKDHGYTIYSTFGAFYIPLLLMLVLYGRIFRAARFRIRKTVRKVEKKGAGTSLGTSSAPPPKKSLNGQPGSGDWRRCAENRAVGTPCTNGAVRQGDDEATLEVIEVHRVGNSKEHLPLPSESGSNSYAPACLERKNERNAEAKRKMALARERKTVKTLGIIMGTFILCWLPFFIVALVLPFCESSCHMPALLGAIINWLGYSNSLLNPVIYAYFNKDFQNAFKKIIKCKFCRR
The data set can be described thus: Affinity for the 5-HT1A receptor: inhibition of [3H]8-OH-DPAT binding to rat cerebral cortex membranes. Conditions: [3H]8-OH-DPAT 1 nM, 30 min at 25 deg. C.
Description: The affinity of the compounds for the 5-HT1A serotonergic receptors is determined by measuring the inhibition of [3H]8-hydroxy-2 (di-n-propylamino) tetralin([3H]8-OH-DPAT) connected with the cerebral cortex of the rat according to the method of Perutka et al. (J. Neurochem., 47,529 [1986]).
Cerebral cortices of male Sprague Dawley rats are homogenized in 50 mM Tris-HCl, pH—7.4, and centrifuged at 40,000 g for 10 min. at 4 degrees C. Pellets are put into suspension in the same buffer and incubated for 10 min. at 37 degrees C. and the homogenates are again centrifuged at 40,000 g for 10 min. at 4 degrees C.
Competitive inhibition tests of the bond of [3H]8-OH-DAPT are performed three times with unmarked competitors with concentrations ranging between 100 pM and 100 μM. Rat cerebral cortex membranes (10 mg by weight, moistened, per ml) are incubated with [3H]8-OH-DPAT (1 nM) for 30 min. at 25 deg. C. in Tris-HCl 50 mM, pH 7.4 comprising 4 mM of CaCl2, 10 μM of pargylin and 0.1% ascorbic acid.
The bonded [3H]8-OH-DPAT is separated from the free [3H]8-OH-DPAT by immediate filtration by means of Whatman GF/B fiberglass filters using a Brandel cell recoverer. The filters [filtrates?] are washed three times with the same buffer at 0-4 deg. C. and their radioactivity is determined by means of a liquid scintillation spectrometer.
The specific bond is obtained by subtracting the given bond in the presence of 1 μM of 8-OH-DPAT from the total bond. The bond characteristics are analyzed by interactive analysis of the nonlinear regression by computer using the Ligand program (Munson and Rodbard, Anal. Biochem., 107, 220 [1980]).

For data set [2], the system named is gastric acid secretion. Nature of the data set: Gastric anti-secretion activity, pylorus-ligated rat (Shay method). Conditions: intraduodenal, male Sprague Dawley rats, pylorus ligature, 4 hours. Type of data set: in vivo. The method, then: The gastric anti-secretion activity of the compounds of the invention was tested according to the method described by Shay et al. (H. Shay, D. C. Sun, M. Gruenstein, Gastroenterology, 26, 906 [1954]). Thus, male Sprague Dawley rats weighing around 200 g with free access to water are made to fast 24 hours before the experiments. Ligatures are made on the pylora under ether anesthesia and the medications to be tested are simultaneously administered either by the intraperitoneal route (i.p.) or by intraduodenal route (i.d.). The abdomen is closed again and the animals are sacrificed after four hours. The gastric secretion is recovered and centrifuged at 1,500 g for 15 minutes; the volume of the supernatant is measured and the acidity is determined by automatic titration of 0.05 N sodium hydroxide. A control group is included for each experiment.
The dose necessery for 50% inhibition (ED50) of the acid secretion (X concentration of hydrochloric acid by volume) is calculated using the method described by Litchfield and Wilcoxon (J. T. Litchfield, F. A. Wilcoxon, J. Pharmacol., 96, 99 [1949]). The results obtained for compounds pounds representative of the invention are given in Table 3 and compared with the clinically used reference compounds: Pirenzepine (anti-cholinergic), Ranitidine (antagonist of histaminergic H2 receptors) and Omeprazole (proton pump inhibitor).

The subject of data set [3] is vomiting induced by cis-platinum. The data set can be described thus: Anti-emetic activity: inhibition of vomiting induced by cis-platinum in ferrets. Format: in vivo, ferret. Conditions: 30 minutes before cis-platinum 30 mg/kg i.v., ferrets observed six hours. The method, then: Inhibition induced by cis-platinum is evaluated in ferrets using a modification of the protocol described by Barnes et al. (J. M. Barnes, N. M. Barnes, B. Costall, R. J. Naylor, F. D. Tattersall, Neuropharmacology, 27[8], 783 [1988]). Thus, albino ferrets or European polecats of both sexes weighing between 0.5 kg and 1.5 kg are put under anesthesia with pentobarbitone (30-40 mg/kg i.p.) and a polyethylene injection tube is inserted into the left jugular vein. Two days later, the compounds being tested are administered i.v. 30 minutes before cis-platinum (30 mg/kg i.v.). The animals are observed for six hours and the number of vomitings is recorded. A control group is included for each experiment.

Data set [4] relates to intestinal transit. Nature of the data set: Effect on intestinal transit (charcoal meal) in rats. Format: in vivo, rat. The note with it: 30 minutes before charcoal, sacrificed after 15 minutes. The method, then:
A compound of the invention was tested to determine its effect on the intestinal transit according to the method described by A. F. Green (Br. J. Pharmacol., 14, 26-34 [1959]). To male Sprague Dawley rats weighing approximately 200 g before being made to fast, there was administered (p.o.) a meal comprised of charcoal (10 g) and gum arabic (2.5 g) dissolved in 100 ml of distilled water. The animals were sacrificed after 15 minutes and the charcoal transit time was measured.
The product to be tested was administered (s.c.) 30 minutes before the administration of the charcoal.

In data set [5] the test system is gastric emptying. The data set can be described thus: Effect on gastric emptying (phenol red meal) in rats. Format: in vivo, rat. The note with it: sacrificed 15 minutes after phenol red meal. As to the method: A compound of the invention was tested for its effect on gastric emptying according to the method described by C. Scarpignato et al. (Arch. Int. Pharmacodyn., 246, 286-294 [1980]). Thus, 1.5 ml of a 1.5% methyl cellulose solution comprising phenol red (0.5 mg/ml) was administered orally to Sprague Dawley rats weighing approximately 200 g and previously subjected to fasting. The animals were sacrificed after 15 minutes and the pylora and the esophagi were tied off. The contents of the stomachs were collected in a teflon beaker containing a solution of soda (100 ml at 0.1 N) and the mixture was homogenized. The proteins were precipitated by addition of 0.5 ml of a 20% aqueous solution of trifluoroacetic acid to a 5 ml portion of homogenate. After centrifuging, the part of the solution rising to the top was separated and added to 4.5 ml of an aqueous solution of soda at 0.5 N and the phenol red content was determined by using a spectrophotometer at a wavelength of 560 nm.
The compound to be tested was administered (s.c.) 15 minutes […] the administration of phenol red.

Where a name gives a salt, the structure may show the parent alone.

`COc1cccc(C(=O)NCCCCNCCOc2ccccc2OC)c1` (as salt: fumarate) [compound 14] returned a melting point of 68 to 70 °C.

As for `COc1ccccc1OCCNCCCCNC(=O)CC(C)(C)C` (as salt: fumarate) [compound 33], the melting point fell in the range of 130 to 132 °C. For `COc1ccccc1OCCNCCCCNC(=O)C1CCCCC1` (as salt: fumarate) [compound 34, N[4-{2-(2-methoxyphenoxy)ethyl}aminobutyl]cyclohexylamide], the melting point is 134 to 136 °C.

Molecule `COc1ccccc1OCCNCCCCNC(=O)C1(C)CCCCC1` (as salt: fumarate) [compound 45] came in with a melting point of 120 to 122 °C. With `COc1ccccc1OCCNCCCCNC(=O)C1CCCCCC1` (as salt: fumarate) [compound 46, N[4-{2-(2-methoxyphenoxy)ethyl}aminobutyl]cycloheptylamide], the melting point lay in the range of 125 to 126 °C. Still for that read-out and setting: the same measure for `COc1ccccc1OCCNCCCCNC(=O)C1CC2CCC1C2` (stereo not drawn) (as salt: fumarate) [compound 50, N[4-{2-(2-methoxyphenoxy)ethyl}aminobutyl]2-bicyclo[2,2,1]heptylamide]: 130 to 131 °C; for `COc1ccccc1OCCNCCCCNC(=O)CC1CCCC1` (as salt: fumarate) [compound 59]: 118 to 119 °C. Same read-out and setting: the same measure for `CCOc1ccccc1OCCNCCCCNC(=O)C(C)(C)C` (as salt: fumarate) [compound 64]: 131.5 to 133 °C; for `COc1ccccc1OCCNCCCCNC(=O)c1ccccn1` (as salt: salt) [compound 3]: 152 to 154 °C; for `COc1ccccc1OCCNCCCCNC(=O)c1ccc(F)cc1` (as salt: salt) [compound 23]: 119 to 120.5 °C. The same measure, in the same setting: the same measure for `COc1ccccc1OCCNCCCCNC(=O)c1cccc(I)c1` (as salt: salt) [compound 30]: 121 to 121.5 °C. In data set [1], `COc1ccccc1OCCNCCCCNC(=O)c1ccccc1` [Compound No. 1, N-[4-{2-(2-Methoxyphenoxy)ethyl}aminobutyl]benzamide] showed an inhibitory constant (Ki) of 0.2 nM. Further, in data set [2], the “ED50 (dose necessary for 50% inhibition of the acid secretion)” value worked out at 3.7 mg/kg i.d. The “Percent Inhibition (vomiting)” value in data set [3] (1.0 mg/kg iv) was determined as 40%. `COc1ccccc1OCCNCCCCNC(=O)C12CC3CC(CC(C3)C1)C2` [Compound No. 2, N-[4-{-2-(2-Methoxyphenoxy)ethyl}aminobutyl]-1-adamantamide] returned an inhibition constant Ki in data set [1] of 0.1 nM. Also, the “ED50 (dose necessary for 50% inhibition of the acid secretion)” value in data set [2] worked out at 3.6 mg/kg i.d.

As for `CNC(=O)c1ccccc1OCCNCCCCNC(=O)c1ccccc1` [Compound No. 18], the “ED50 (dose necessary for 50% inhibition of the acid secretion)” value in data set [2] worked out at 3.2 mg/kg i.d. The “Percent Inhibition (vomiting)” value in data set [3] (1.0 mg/kg iv) was found to be 62%. Moreover, the “Charcoal Transit Time Compared to Control” value is on record as “+16%” in data set [4] (0.3 mg/kg s.c.) and “+20%” in data set [4] (1.0 mg/kg s.c.). For the same molecule, the “Effect on Gastric Emptying Time Compared to Control” value in data set [5] (0.3 mg/kg s.c.) is “+8%”; in data set [5] (1.0 mg/kg s.c.), “+18%”; in data set [5] (3.0 mg/kg s.c.), “+26%”.

For `CCN(CC)CCNC(=O)c1cc(Cl)c(N)cc1OC` [Metoclopramide, reference compound], the “Percent Inhibition (vomiting)” value in data set [3] (1.0 mg/kg iv) came out at 15%. Turning to `COc1ccc2[nH]c([S+]([O-])Cc3ncc(C)c(OC)c3C)nc2c1` (stereo not drawn) [Omeprazole, reference compound], the “ED50 (dose necessary for 50% inhibition of the acid secretion)” value in data set [2] is listed as 4.6 mg/kg i.d. `Cc1nccn1CC1CCc2c(c3ccccc3n2C)C1=O` (stereo not drawn) [Ondansetron, reference compound]: the “Percent Inhibition (vomiting)” value in data set [3] (0.5 mg/kg iv) turned out to be 62%. For the molecule `CN1CCN(CC(=O)N2c3ccccc3C(=O)Nc3cccnc32)CC1` [Pirenzepine, reference compound], the “ED50 (dose necessary for 50% inhibition of the acid secretion)” value in data set [2] was 14 mg/kg i.d. For the molecule `CNC(=C[N+](=O)[O-])NCCSCc1ccc(CN(C)C)o1` [Ranitidine, reference compound], the “ED50 (dose necessary for 50% inhibition of the acid secretion)” value in data set [2] amounted to 22 mg/kg i.d.

For `COc1ccccc1OCCNCCCCNC(=O)c1ccccn1` [compound 3], the inhibitory constant (Ki) in data set [1] came to 1.4 nM. In other words, the single-digit nanomolar range. Still for that read-out and setting: for `CSc1ccccc1OCCNCCCCNC(=O)c1ccccc1` [compound 11] the value was 0.71 nM; for `COc1cccc(C(=O)NCCCCNCCOc2ccccc2OC)c1` [compound 14], 1.6 nM. In data set [1], `O=C(NCCCCNCCOc1ccccc1O)c1ccccc1` [compound 20, N[4-{2-(2-hydroxyphenoxy)ethyl}aminobutyl]benzamide] came in with an inhibition constant (Ki) of 0.23 nM. The “ED50 (dose necessary for 50% inhibition of the acid secretion)” value in data set [2] is listed as 3.1 mg/kg i.d. The molecule `COc1ccccc1OCCNCCCCNC(=O)c1ccc(F)cc1` [compound 23] had a Ki in data set [1] of 0.33 nM. On the same count and under the same terms, the same measure for `COc1ccccc1OCCNCCCCNC(=O)c1cccc(I)c1` [compound 30]: 0.44 nM; for `COc1ccccc1OCCNCCCCNC(=O)CC(C)(C)C` [compound 33]: 0.33 nM. Take `COc1ccccc1OCCNCCCCNC(=O)C1CCCCC1` [compound 34, N[4-{2-(2-methoxyphenoxy)ethyl}aminobutyl]cyclohexylamide]: the affinity in data set [1], expressed as Ki, was 0.087 nM. In the case of `COc1ccccc1OCCNCCCCNC(=O)C1(C)CCCCC1` [compound 45], the inhibition constant (Ki) in data set [1] turned out to be 0.14 nM. The molecule `COc1ccccc1OCCNCCCCNC(=O)C1CCCCCC1` [compound 46, N[4-{2-(2-methoxyphenoxy)ethyl}aminobutyl]cycloheptylamide] gave a Ki in data set [1] of 0.094 nM. On the same count and under the same terms, for `COc1ccccc1OCCNCCCCNC(=O)C1CC2CCC1C2` (stereo not drawn) [compound 50, N[4-{2-(2-methoxyphenoxy)ethyl}aminobutyl]2-bicyclo[2,2,1]heptylamide] the value was 0.071 nM. With `COc1ccccc1OCCNCCCCNC(=O)CC1CCCC1` [compound 59], the affinity in data set [1] corresponds to a Ki of 0.65 nM. `CCOc1ccccc1OCCNCCCCNC(=O)C(C)(C)C` [compound 64] returned an inhibitory constant (Ki) in data set [1] of 0.77 nM.

The values above are taken from patent US6670400B1, “Phenoxyethylamine derivatives having high affinity for the 5-HT1A receptor, preparation thereof, use thereof as drugs, and pharmaceutical compositions containing said derivatives” (Societe de Conseils de Recherches et D'Applications …, priority 1995, dated 2003).
